The source of these data is ChEMBL document CHEMBL6109156, “Discovery of Dual PD-L1/HDAC3 Inhibitors for Tumor Immunotherapy” (J Med Chem, 2025).

Activity calls are given as the source filed them. No cut-off for these calls is given here. Where only a bound is given, the exact number is not on record here.

Data set [1] in a line: Toxicity in C57BL/6J mouse implanted with mouse B16-F10 cells assessed as heart damage at 20 to 40 mg/kg, ip administered once daily for 9 days by H and E staining based analysis. In kind it is organism-based. Particulars: in vivo, 216 h, dose 20-40 mg/kg, time 9 day.
The nature of data set [2]: Toxicity in C57BL/6J mouse implanted with mouse B16-F10 cells assessed as spleen damage at 20 to 40 mg/kg, ip administered once daily for 9 days by H and E staining based analysis. In kind it is organism-based. Particulars: in vivo, 216 h, dose 20-40 mg/kg, time 9 day.
The nature of data set [3]: Toxicity in C57BL/6J mouse implanted with mouse B16-F10 cells assessed as lung damage at 20 to 40 mg/kg, ip administered once daily for 9 days by H and E staining based analysis. The following applies: in vivo, 216 h, dose 20-40 mg/kg, time 9 day. In kind it is organism-based.
Another data set addresses Histone deacetylase 3 (Homo sapiens, UniProt O15379). Briefly: Inhibition of human recombinant HDAC3 using Ac-Leu-Gly-Lys (Ac)-AMC as substrate at 1 uM preincubated for 10 mins followed by substrate addition and measured after 45 mins by TECAN microtiter plate reader analysis relative to control. The following applies: time 55.0 min.
A further data set has as its target Histone deacetylase 1 (Homo sapiens, UniProt Q13547). As to the kind of experiment: Inhibition of human recombinant HDAC1 using Ac-Leu-Gly-Lys (Ac)-AMC as substrate preincubated for 10 mins followed by substrate addition and measured after 45 mins by TECAN microtiter plate reader analysis.
For data set [4], the target named is T1, Protein deacetylase HDAC6 (Homo sapiens, UniProt Q9UBN7).
T1 sequence (Q9UBN7 whole entry): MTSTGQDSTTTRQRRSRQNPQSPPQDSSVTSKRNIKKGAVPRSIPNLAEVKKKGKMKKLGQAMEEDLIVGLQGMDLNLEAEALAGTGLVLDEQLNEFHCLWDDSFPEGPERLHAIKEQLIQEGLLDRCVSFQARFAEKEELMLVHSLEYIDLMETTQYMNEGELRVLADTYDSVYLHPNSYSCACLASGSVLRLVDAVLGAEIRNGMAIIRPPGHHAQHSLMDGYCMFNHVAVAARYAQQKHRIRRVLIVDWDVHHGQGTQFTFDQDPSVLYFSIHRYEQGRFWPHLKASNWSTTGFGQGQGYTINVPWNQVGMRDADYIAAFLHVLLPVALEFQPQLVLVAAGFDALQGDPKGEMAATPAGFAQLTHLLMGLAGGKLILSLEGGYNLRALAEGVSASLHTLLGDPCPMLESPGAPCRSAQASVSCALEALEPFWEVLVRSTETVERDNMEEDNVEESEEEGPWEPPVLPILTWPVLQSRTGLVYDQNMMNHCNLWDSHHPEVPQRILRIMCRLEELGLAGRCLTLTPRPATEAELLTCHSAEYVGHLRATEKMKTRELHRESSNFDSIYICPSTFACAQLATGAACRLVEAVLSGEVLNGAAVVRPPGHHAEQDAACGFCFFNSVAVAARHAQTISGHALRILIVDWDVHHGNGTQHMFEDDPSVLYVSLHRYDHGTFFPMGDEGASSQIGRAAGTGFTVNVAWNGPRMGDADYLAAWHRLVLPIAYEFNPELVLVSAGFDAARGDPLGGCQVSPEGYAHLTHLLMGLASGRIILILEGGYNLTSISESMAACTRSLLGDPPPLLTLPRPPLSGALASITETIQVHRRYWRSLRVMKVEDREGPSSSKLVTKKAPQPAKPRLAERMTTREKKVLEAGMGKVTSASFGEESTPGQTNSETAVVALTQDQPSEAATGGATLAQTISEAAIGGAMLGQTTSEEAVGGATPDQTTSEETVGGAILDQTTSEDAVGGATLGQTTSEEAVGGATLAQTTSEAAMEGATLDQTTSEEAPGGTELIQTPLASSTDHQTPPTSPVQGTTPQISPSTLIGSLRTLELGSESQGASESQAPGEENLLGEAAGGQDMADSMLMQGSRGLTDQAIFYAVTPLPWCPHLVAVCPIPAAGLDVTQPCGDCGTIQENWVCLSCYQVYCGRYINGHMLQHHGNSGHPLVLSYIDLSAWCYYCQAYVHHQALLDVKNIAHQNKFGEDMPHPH
As to the kind of experiment: Inhibition of human recombinant HDAC6 using Ac-Leu-Gly-Lys (Ac)-AMC as substrate preincubated for 10 mins followed by substrate addition and measured after 45 mins by TECAN microtiter plate reader analysis.

Data set [5] relates to B16-F10. Briefly: Induction of apoptosis in mouse B16-F10 cells assessed as viable cells at 2 uM incubated for 48 hrs by Annexin V-FITC/PI staining based flow cytometry analysis (reference value: 92.3%). In kind it is functional. Particulars: read-out: Activity.
For data set [6], the system named is B16-F10. Briefly: Induction of apoptosis in mouse B16-F10 cells assessed as viable cells at 4 uM incubated for 48 hrs by Annexin V-FITC/PI staining based flow cytometry analysis (reference value: 92.3%). In kind it is functional. The following applies: read-out: Activity.
Data set [7] relates to B16-F10. As to the kind of experiment: Induction of apoptosis in mouse B16-F10 cells assessed as early apoptotic cells at 1 uM incubated for 48 hrs by Annexin V-FITC/PI staining based flow cytometry analysis (reference value: 0.45 %). In kind it is functional. A general note: Flow cytometry measures light scatter and fluorescence of single cells or particles in a stream.
In data set [8] the test system is B16-F10. Briefly: Induction of apoptosis in mouse B16-F10 cells assessed as early apoptotic cells at 8 uM incubated for 48 hrs by Annexin V-FITC/PI staining based flow cytometry analysis (reference value: 0.45 %). In kind it is functional.
The test system of data set [9] is B16-F10. Briefly: Induction of cell cycle arrest in mouse B16-F10 cells assessed as accumulation of cells at G2/M phase at 1 uM incubated for 48 hrs by PI staining based flow cytometry analysis (reference value: 5.87%). In kind it is functional.
The subject of data set [10] is B16-F10. As to the kind of experiment: Induction of cell cycle arrest in mouse B16-F10 cells assessed as accumulation of cells at G0/G1 phase at 2 uM incubated for 48 hrs by PI staining based flow cytometry analysis (reference value: 70.09%). In kind it is functional.
In data set [11] the test system is B16-F10. Briefly: Induction of cell cycle arrest in mouse B16-F10 cells assessed as accumulation of cells at G0/G1 phase at 4 uM incubated for 48 hrs by PI staining based flow cytometry analysis (reference value: 70.09%). In kind it is functional.
Data set [12] concerns B16-F10. As to the kind of experiment: Induction of cell cycle arrest in mouse B16-F10 cells assessed as accumulation of cells at S phase at 4 uM incubated for 48 hrs by PI staining based flow cytometry analysis (reference value: 24.04%). The class given is functional.
Data set [13] has as its system B16-F10. As to the kind of experiment: Induction of cell cycle arrest in mouse B16-F10 cells assessed as accumulation of cells at G2/M phase at 8 uM incubated for 48 hrs by PI staining based flow cytometry analysis (reference value: 5.87%). The class given is functional.
The subject of data set [14] is B16-F10. Briefly: Induction of cell cycle arrest in mouse B16-F10 cells assessed as accumulation of cells at S phase at 8 uM incubated for 48 hrs by PI staining based flow cytometry analysis (reference value: 24.04%). The class given is functional.
The test system of another data set is Jurkat. Briefly: Antiproliferative activity against human Jurkat T cells assessed as cell viability incubated for 48 hrs by MTT assay. The class given is functional, cell-based.
A short description of data set [15]: Toxicity in C57BL/6J mouse implanted with mouse B16-F10 cells assessed as kidney damage at 20 to 40 mg/kg, ip administered once daily for 9 days by H and E staining based analysis. In kind it is organism-based. Particulars: in vivo, 216 h, dose 20-40 mg/kg, time 9 day.
The test system of data set [16] is B16-F10. As to the kind of experiment: Immunomodulatory activity in mouse B16-F10 cells implanted in C57BL/6J mouse assessed as percentage of CD3 positive CD4 positive cells in tumor at 40 mg/kg, ip administered once daily for 9 days by flow cytometric analysis (reference value: 0.20 %). The following applies: time 9 day. The class given is functional.

In general, inhibition refers to the percentage by which the read-out fell short of the control. Usually IC50 stands for the concentration that inhibits the measured activity by half.

Sequence of Histone deacetylase 1 (Q13547 whole entry): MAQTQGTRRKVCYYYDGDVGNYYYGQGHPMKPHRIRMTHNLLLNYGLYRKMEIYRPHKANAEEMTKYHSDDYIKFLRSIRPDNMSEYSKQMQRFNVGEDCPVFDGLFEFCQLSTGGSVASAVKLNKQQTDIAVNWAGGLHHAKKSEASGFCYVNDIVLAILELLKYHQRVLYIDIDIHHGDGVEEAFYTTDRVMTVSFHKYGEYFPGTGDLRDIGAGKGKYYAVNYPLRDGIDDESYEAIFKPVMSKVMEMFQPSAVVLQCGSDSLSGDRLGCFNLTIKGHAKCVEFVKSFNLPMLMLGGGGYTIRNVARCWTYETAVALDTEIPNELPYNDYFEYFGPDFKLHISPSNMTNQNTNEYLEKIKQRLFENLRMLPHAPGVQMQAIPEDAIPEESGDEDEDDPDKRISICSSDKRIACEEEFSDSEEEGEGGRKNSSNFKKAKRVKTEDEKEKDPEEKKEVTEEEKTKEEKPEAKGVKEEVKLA
Sequence of Histone deacetylase 3 (O15379 whole entry): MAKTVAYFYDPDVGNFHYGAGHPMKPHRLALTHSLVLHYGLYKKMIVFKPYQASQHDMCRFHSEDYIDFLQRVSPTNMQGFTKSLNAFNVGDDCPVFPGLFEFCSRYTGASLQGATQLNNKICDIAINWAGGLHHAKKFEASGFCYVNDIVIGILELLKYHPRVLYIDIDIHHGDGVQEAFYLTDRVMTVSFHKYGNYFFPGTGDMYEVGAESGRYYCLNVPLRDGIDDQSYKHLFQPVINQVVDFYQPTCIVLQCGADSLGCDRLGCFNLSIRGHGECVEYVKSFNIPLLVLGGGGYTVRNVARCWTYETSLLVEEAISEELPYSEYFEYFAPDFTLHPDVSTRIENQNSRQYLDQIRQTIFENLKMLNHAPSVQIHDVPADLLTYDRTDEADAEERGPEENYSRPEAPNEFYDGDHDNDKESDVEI

Regarding `CCCNNC(=O)CCCNCc1ccc(-c2cccc(-c3ccccc3)c2C)nc1OC`, the Activity entry is “Non-toxic” in [1]; “Non-toxic” in data set [2]; “Non-toxic” in data set [3]; 3.34% in the data set on B16-F10 [7]; 32.8% with B16-F10 [8]; 4.75% in the data set on B16-F10 [9]. The Activity is reported as 87.25% in the data set with B16-F10 [10]; 91.66% in the data set on B16-F10 [11]; 4.69% in the data set with B16-F10 [12]; 2.69% in the data set with B16-F10 [13]; 0.5% in the data set with B16-F10 [14]; “Non-toxic” in [15]. Besides, the Activity in the data set with B16-F10 [16] was 2.8%. In addition, at Histone deacetylase 3, the inhibition is 83.1%. Further, the figures for the IC50 (on Histone deacetylase 1; in data set [4]) were 2.23 µM and greater than 10 µM, respectively. Moreover, in the data set with B16-F10 [5], the viability at 2 µM was found to be 71.7%. Moreover, the viability at 4 µM with B16-F10 [6] stood at 62.3%. Also, the result in the data set on Jurkat was Active.
